This is an account of results in patent US20250145715A1, “B7-H3 TARGETING FUSION PROTEINS AND METHODS OF USE THEREOF” (GT Biopharma, Inc., priority 2021, published 2025).

Entries after “also recorded” stand apart in the source; their conditions may differ.

The subject of experiment [1] is MA-148-luc ovarian cancer cells. Kind of experiment: Xenogeneic ovarian cancer MA-148-Luc model. The format is in vivo, NSG mice. The source says:
FIGS. 32A-32F illustrate that cam1615B7-H3 TriKE is efficacious in subduing ovarian tumor progression in vivo. FIG. 32A is a diagram showing xenogeneic ovarian cancer MA-148-Luc model in female NSG mice (N=5 per treatment group). FIG. 32B is a graph showing bioluminescent imaging indicative of tumor progression, measured as Total flux radiance (p/s), over three weeks in the MA148 mouse model treated with enriched NK cells and noted treatments. FIG. 32C is a graph illustrating bioluminescent imaging results on day 21 data point. FIG. 32D is a photograph illustrating total flux radiance (p/s) on day 21. FIG. 32E is a scatter plot of CD56+CD3− NK cell numbers from peritoneal lavages for the rhIL-15 and cam1615B7-H3 TriKE treatment groups at D21. FIG. 32F is a scatter plot of CD16 media fluorescence intensity on NK cells from peritoneal lavages for the rhIL-15 and cam1615B7-H3 TriKE treatment groups at day 21. * p<0.05, ** p<0.01.
MA-148-Luc ovarian cancer cells were incorporated into a previously described NK cell xenogeneic mouse model system. NSG mice (NOD.Cg-Prkdcscid Il2rgtm1Wjl/SzJ, n=5/group) were injected IP with 2.0×10^5 MA-148-luc cells and then three days later conditioned with low-dose total body irradiation (225 cGy). The following day, all groups received highly enriched NK cells (PBMC magnetically CD3 and CD19 depleted), equivalent to 1 million NK cells/mouse, and were started on the drug regimen. A single course of treatment consisted of an IP injection of […] of TriKE or 5 μg rhIL-15 given every day of the week (Monday-Friday) for three weeks. MA-148-luc cells are a subline of MA-148 that have been transfected with a luciferase reporter gene, allowing for imaging of the mice each week to determine their bioluminescent activity and to monitor tumor progression. Briefly, mice were injected with 100 μL of 30 mg/mL luciferin substrate 10 min prior to imaging and then anesthetized via inhalation of isoflurane gas (25). Mice were then imaged using the Xenogen Ivis 100 imaging system and analyzed with Living Image 2.5 software (Xenogen Corporation, Alameda, CA, USA). At the end of the experiment (day 21), all the animals were sacrificed, and postmortem peritoneal lavages were performed to analyze human NK cell content by flow cytometry. Animal imaging and analysis was performed at the University of Minnesota Imaging Center. Mouse studies were carried after approval (protocol 1908-37330A) from the Institutional Animal Care and Use Committee (IACUC) at the University of Minnesota and in compliance with their guidelines.
As illustrated in FIGS. 32A-32F, cam1615B7-H3 TriKE mediates anti-tumor activity in vivo. Determination of in vivo activity is a critical step for translation. However, prior to evaluating the ability of the cam1615B7-H3 TriKE to induce function against tumor the potential for toxicity was assessed. To do this NSG mice were irradiated, engrafted with 1 million NK cells, treated with nothing, IL-15, or cam1615B7-H3 for three weeks, and weights were tracked over the course of 90 days post initial treatment. […] This is not surprising given the low toxicity profile of IL-15 and the safety profile of B7-H3. […] In this model, human NK cells and human high grade serous MA-148-luc cells are injected into the peritoneal cavity of NSG mice.

Experiment [2] relates to myeloma cells (RPMI-8226, U266, MM1S, H929). The experiment in a line: IncuCyte Zoom NK cell killing of myeloma cells. Type of experiment: cell-based, human. The source says: FIGS. 7A-7B illustrate the ability of peripheral blood NK cells with or without B7-H3-TriKE to kill myeloma cells in live imaging IncuCyte Zoom assays. FIG. 7A is a graph showing the effects with effector:target (E:T) ratios of 2:1 and 4:1 on MM1S cells. FIG. 7B is a graph showing the effects with effector:target (E:T) ratios of 2:1 and 4:1 on U266 cells.
(§1) FIGS. 8A-8D illustrate the ability of peripheral blood NK cells with or without B7-H3-TriKE to kill myeloma cells in live imaging IncuCyte Zoom assays. FIG. 8A is a graph showing the effects with effector:target (E:T) ratios of 2:1 and 4:1 on H929 cells. FIG. 8B is a graph showing the effects with effector:target (E:T) ratios of 2:1 and 4:1 on MM1S cells. FIG. 8C is a graph showing the effects with effector:target (E:T) ratios of 2:1 and 4:1 on RPMI-8226 cells. FIG. 8D is a graph showing the effects with effector:target (E:T) ratios of 2:1 and 4:1 on U266 cells.
(§2) The ability of peripheral blood NK cells with or without B7-H3-TriKE to kill myeloma cells was compared in live imaging IncuCyte Zoom assays with escalating doses of TriKE. Maximal killing occurred with 3 nM concentration.

For another experiment, the system named is RPMI-8226 cells. The experiment in a line: IncuCyte Zoom NK cell killing of RPMI-8226. The conditions noted are these: E:T 4:1. Type of experiment: cell-based, human.
From the text: as §1
FIGS. 9A-9D illustrate the efficacy of B7-H3-TriKE with the proteasome inhibitor bortezomib (10 nM) and the immunomodulatory drug lenalidomide (5 μM). FIG. 9A is a graph showing the effect of the combination therapy on H929 cells after 48 hours. FIG. 9B is a graph showing the effect of the combination therapy on RPMI-8226 cells after 48 hours. FIG. 9C is a graph showing the effect of the combination therapy on MM1S cells after 48 hours. FIG. 9D is a graph showing the effect of the combination therapy on U266 cells after 48 hours.
as §2
The efficacy of B7-H3-TriKE with the proteasome inhibitor bortezomib (10 nM) and the immunomodulatory drug lenalidomide (5 μM) was also tested. Cytotoxicity curves were compared by repeated measures ANOVA and performed in triplicate.

For the substance “cam1615B7-H3: second-generation TriKE: humanized camelid anti-CD16 VHH, human wild-type IL-15, anti-B7-H3 mAb 376.96 scFv; SEQ ID NO:1”, in experiment [1] (IP 30 g of TriKE or 5 μg rhIL-15 Monday-Friday for three weeks, enriched NK cells, vs IL-15 treated or tumor only), the “tumor progression (bioluminescence), longitudinal” value was “lowest tumor progression”. The PD-1 expression result in experiment [1] (TriKE-treated vs IL-15-treated mice) is given as “lower (but not significant) trend of expression”. Also, the “CD16 expression on NK cells from peritoneal lavages” value in experiment [1] (day 21, vs IL-15 treated mice) is on record as “higher levels of CD16 expression than IL-15 treated mice”. Further, in experiment [1] (day 21, vs tumor only group), the “tumor burden at day 21” value is recorded as “significantly lower tumor burden than the tumor only group”. For the same substance, in experiment [1] (treatment not curative within this model), the “disease outcome of treated animals” value was “stable disease”.

In the case of “B7-H3 TriKE: camelid nanobodies targeting CD16 and B7-H3 joined by IL-15 and two linkers; sequence table equates the name with cam1615B7-H3”, in experiment [2] (3 nM B7-H3-TriKE, all four myeloma lines), the “NK cell mediated killing of myeloma lines” value was “statistically significant increase; also recorded: significantly enhanced NK cell mediated killing of myeloma cells”. Moreover, the “TriKE concentration giving maximal killing” value in experiment [2] (escalating doses of TriKE, peripheral blood NK cells) is listed as 3 nM. In the experiment on RPMI-8226 cells, the “NK cell killing of RPMI-8226” value is “enhanced killing”.
